# According to the METLIN SMRT retention time set (Domingo-Almenara et al. 2019):
# Assay: gradient 5% acetonitrile 3 min, to 50% in 2 min, to 85% in 15 min, held 3 min, 100 µL/min
# Details: column: Zorbax Extend-C18 2.1 x 50 mm; eluents: water / acetonitrile, 0.1% formic acid
# Outline: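 The mobile phases were water and acetonitrile, each with 0.1% formic acid, pumped at 100 μL/min through a Zorbax Extend-C18 column (2.1 × 50 mm, 1.8 μm). Pure standards were injected as mixtures of ~100 molecules and detected by a quadrupole time-of-flight mass spectrometer in positive and negative ionization mode. Retention time came from computationally picked adduct peaks, each inspected by hand.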
row,SMILES,RP-LC retention time [s]
1,CSc1nnc(NC(=O)c2ccccc2Br)s1,737
2,COCCN1C(=O)Cc2ccccc2C1C(=O)NCc1ccc(SC)cc1 (stereo not drawn),771
3,COc1cccc(-n2c(N3CCC(C(=O)NCC4CC4)CC3)nc3ccsc3c2=O)c1,745
4,CC(C)NC(=O)c1ccc(-c2ccc(Cl)cc2)o1,874
5,O=C(NCc1ccccn1)C(=O)Nc1nccs1,527
6,CCCNC(=O)c1nc2cc(C)c(C)cc2[nH]c1=O,671
7,Cc1ccc(NC(=O)CN2C(=O)CCc3cc(Br)ccc32)cc1,931
8,CCOC(=O)N1CCN(S(=O)(=O)c2ccc(C(=O)Nc3cc(C)nn3C)cc2)CC1,687
9,COc1cc(OC)c(OC)cc1CN1CCC(C)(c2noc(C3CCOCC3)n2)CC1,642
10,Cc1ccc(NC(=O)c2cccn2Cc2noc(C3CC3)n2)cc1F,1010
11,Cc1ccc(-c2nc(C)c(C(=O)N3CCCC3)s2)cc1,906
12,CC1CCN(S(=O)(=O)c2nn(C)cc2C(=O)NCCc2cccs2)CC1,952
13,COc1cc(-c2nnc(SCC(=O)N3CCCCC3C)o2)cc(OC)c1OC (stereo not drawn),867
14,CCOC(=O)c1ccc(NC(=O)N2CCC(n3cnc4cccnc43)CC2)cc1,674
15,COc1ccc(N2CCn3c2nn(CC(=O)NCc2ccco2)c(=O)c3=O)cc1,634
16,Cc1ccc(CC(=O)NC2CCN(c3ccc(F)cc3)C2=O)cc1 (stereo not drawn),828
17,Cc1ccc(CC(=O)N2CCC3(CC2)NC(=O)c2ccc(F)cc2N3C)cc1,787
18,NS(=O)(=O)c1ccc(NC(=O)C2Cc3ccccc3C(=O)O2)cc1 (stereo not drawn),684
19,CNC(=O)C1CN(C(=O)Cc2cccc(Cl)c2)CC12CCCC2 (stereo not drawn),740
20,Cc1ccc(NC(=O)N2CCc3c(c(-c4nc(C5CC5)no4)nn3C)C2)cc1,867
21,Cc1c(Cl)cccc1N1CCn2c1nc1c2c(=O)n(CC(=O)O)c(=O)n1C,719
22,CCNc1cc(N2CCC(CCC(=O)NCc3ccccc3C)CC2)ncn1,651
23,Cc1cccn2cc(-c3cccc(S(=O)(=O)N4CC(C)CC(C)C4)c3)nc12 (stereo not drawn),828

row,SMILES,RP-LC retention time [s]
1,CNC(=O)C1CCCN(c2nc3ncn(CC(=O)NCCc4ccc(Cl)cc4)c(=O)c3s2)C1 (stereo not drawn),681
2,COc1cccc(C(=O)N2CCCC(c3nnc(-c4ccccc4)o3)C2)c1 (stereo not drawn),822
3,CN1CC=C(c2noc(CCC(=O)NCc3ccc4c(c3)OCO4)n2)CC1,587
4,CCOc1ccccc1NC(=O)N1CCc2nc(-c3ccc(Cl)cc3)ncc2C1,1170
5,CCN1CCN(c2ncnc3sc(C(=O)NCCCOC)c(C)c23)CC1,563
6,CCC(CN(C)Cc1ccccc1)NC(=O)CSc1nc2ccccc2n(C)c1=O (stereo not drawn),653
7,O=C(c1ccc2ccnc(N3CCN(c4ccc(Cl)cc4)CC3)c2c1)N1CCCCCC1,986
8,Cc1noc(C)c1C1CCCN1C(=O)c1cccc(C#N)c1 (stereo not drawn),767
9,COc1ccc(-c2nnc(CC(=O)N3CCC4(CC3)OCCO4)o2)cc1,681
10,O=C(Nc1cc(-c2ccsc2)no1)c1ccc(Cl)s1,1030
11,CCOC(=O)N1CCN(C(=O)C2CN(C(=O)c3c[nH]c4ccccc34)C2)CC1,633
12,CCc1ccc(-n2nc(C)c3c(C(F)(F)F)cc(OCC(=O)NCc4ccco4)nc32)cc1,1300
13,CCCCC(=O)Nc1nc(-c2ccc3c(c2)NC(=O)CO3)c(C)s1,839
14,COc1ccc(NC(=O)C(C)C2CCN(C(=O)Nc3ccc(F)cc3)CC2)c(OC)c1 (stereo not drawn),871
15,CCCn1cc(CCNC(=O)Nc2ccc(Br)cc2)c2cccnc21,835
16,CSc1ccc(CNc2cc(-n3nc(C)cc3C)ncn2)cc1,1000
17,Cc1ccc(S(=O)(=O)NCc2ccccc2)cc1,908
18,C=CCc1ccccc1OCC(O)CN1CCC(C)CC1 (stereo not drawn),588
19,CC(C)Oc1ccc(-c2noc(Cn3cnc4c(oc5ccccc54)c3=O)n2)cc1,1060
20,CCCn1cc(S(=O)(=O)Nc2ccc(F)cc2)c2cccnc21,858
21,CCOc1ccccc1NC(=O)N1CCCC1c1nc(-c2ccc(OC)cc2)no1 (stereo not drawn),1100
22,COc1ccc(N2CC(c3noc(-c4cc(F)cc(F)c4)n3)CC2=O)cc1 (stereo not drawn),969
23,O=C(NCc1ccccc1F)C1CCN(C(=O)c2ncn3c2COC(c2ccc(Cl)cc2)C3)CC1 (stereo not drawn),819

row,SMILES,RP-LC retention time [s]
1,Cc1ccc(NC(=O)N2CCN(CCn3c(C(C)C)nc4cccnc43)CC2)c(C)c1,621
2,COCCn1c(C2CCN(C(=O)c3cccc(Cl)c3)C2)nc2ccncc21 (stereo not drawn),561
3,Cc1nc(-c2ccccc2)sc1C(=O)Nc1nc(-c2ccc(F)cc2)c(C)s1,1280
4,CC(=O)c1ccc(S(=O)(=O)NCCC2CCN(C(=O)c3ccc(F)cc3)CC2)cc1,795
5,CC1=NS(=O)(=O)N(C)C=C1C(=O)OCc1nc(-c2ccccc2)no1,944
6,Cc1ccc2oc(C(=O)NCc3c(F)cccc3F)cc2n1,652
7,Cc1nnc(-c2cc(NC(=O)c3ccc(C(F)(F)F)cc3)c(C)s2)o1,986
8,COc1ccc(-c2nc3cc(C)ccn3c2Nc2ccc(C)cc2)cc1,761
9,O=C(CN1CCN(c2ccccn2)CC1)N1N=CCC1c1ccccc1 (stereo not drawn),573
10,CCN1CCN(c2cc(C)c3cc(NC(=S)N4CCN(c5ccccc5F)CC4)ccc3n2)CC1,620
11,O=C(c1cnc2ccccc2n1)N1CCN(Cc2nc(-c3ccc(F)cc3)cs2)CC1,719
12,O=C(COc1ccccc1)N1CCN(c2nc(CN3CCCC3)cs2)CC1,623
13,COc1cccc2cc(C(=O)NC3CNC(=O)C3)oc12 (stereo not drawn),586
14,COC(=O)c1cc(S(=O)(=O)N2CCCC2C(=O)Nc2ccc(C)cc2C)cn1C (stereo not drawn),915
15,CC(C)n1cc(S(=O)(=O)Nc2cc(F)cc(F)c2)c2cccnc21,936
16,CCOC(=O)C1=C(CN2CCCC(c3ccccc3)C2)NC(=O)NC1c1cccc(OC)c1OC (stereo not drawn),695
17,COc1ccc(N2CC(c3noc(-c4ccc(Cl)cc4)n3)CC2=O)cc1OC (stereo not drawn),956
18,O=C(Nc1ccc2c(c1)OCO2)C1CCN(C(=O)C2Sc3ccccc3NC2=O)CC1 (stereo not drawn),736
19,Cc1ccc(Sc2nccnc2N2CCCC(C(=O)Nc3ccc(C)cc3C)C2)cc1 (stereo not drawn),1150
20,COc1ccc(CNC(=O)C2(C)CCN(S(=O)(=O)c3ccc(Br)s3)CC2)cc1,961
21,CCc1noc(NC(C)=O)c1-c1ccc(OC)c(S(=O)(=O)N2CCCCC2)c1,758
22,CCOc1ccccc1NC(=O)C1CCN(S(=O)(=O)c2ccc3c(c2)NC(=O)C(C)O3)CC1 (stereo not drawn),897
